How the values were obtained:
CCL2 = CCL2 production by TAM (ELISA); format: cell-based, human; settings: 16 h, n=4
Source text: (§1) Tumour-associated macrophages (TAM) and tumour cells were isolated from the ascitic fluid of patients with diagnosed ovarian adenocarcinoma, admitted to the Clinic of Obstetrics and Gynecology of the University of Milan-Bicocca, S Gerardo Hospital. Cells contained in the ascitic fluid were centrifuged and isolated by differential density gradients of Ficoll and Percoll, and plastic adherence as previously described (see Allavena, P., Peccatori, F., Maggioni, D., Erroi, A., Sironi, M., Colombo, N., Lissoni, A., Galazka, A., Meiers, W., Mangioni, C., et al. Intraperitoneal recombinant gamma-interferon in patients with recurrent ascitic ovarian carcinoma: modulation of cytotoxicity and cytokine production in tumour-associated effectors and of major histocompatibility antigen expression on tumour cells. Cancer Res, 50: 7318-7323, 1990). Purity of TAM and tumour cell preparations was usually>65±10% as defined by morphology and phenotype analysis. Cells were treated with ecteinascidin 743 at the indicated concentrations and cultured for 1-5 days, as specified in figure legends. […]
Monocytes, macrophages and TAM were stimulated with 100 ng/ml LPS to induce maximal cytokine production. Determination of cytokines CCL2, TNF and IL-6 was measured by specific ELISA following the manufacturer's instructions. […]

IL-6 = IL-6 release in TAM (ELISA); format: cell-based; settings: Homo sapiens, n=4
Source text: as §1
Supernatants of untreated cells or cells treated with ecteinascidin 743 or other anti-neoplastic agents were collected after 24 h culture and frozen. […] Determination of cytokines CCL2, TNF and IL-6 was measured by specific ELISA following the manufacturer's instructions. […]

COc1cc2c(cc1O)CCN[C@]21CS[C@@H]2c3c(OC(C)=O)c(C)c4c(c3[C@H](COC1=O)N1[C@@H]2[C@H]2c3c(cc(C)c(OC)c3O)C[C@@H]([C@@H]1O)N2C)OCO4 [ecteinascidin 743]
reduction of LPS-stimulated production of CCL2 by TAM (CCL2; LPS 100 ng/ml): 50%
reduction of constitutive production of CCL2 by TAM (CCL2; no LPS): 43%
inhibition at 0.005 µM (IL-6; 5 nM): 35%
inhibition at 0.01 µM (IL-6; 10 nM): 47%

Source: patent US20080076772A1, “Anti-Inflammatory Agents” (Pharma Mar S.A. Sociedad Unipersonal, priority 2004, published 2008)
